Measured values from patent publication US5744462A, “Steroids useful as anti-cancer and anti-obesity agents” (Research Corporation Technologies, Inc., priority 1995, dated 1998).
“Also recorded” adds a separate entry of the source.

Tests used:
[1] = long term treatment, NZB mice; cited from earlier work
[2] = Anti-weight effect in mice, general statements; format: in vivo, mouse
Description: (Table 9 vs Table 5 and Table 6). […] Thus the cancer preventive the cancer preventive effect of DHEA may result indirectly from its anti-weight action rather than from a direct effect of DHEA or target cells.

[3] = oral; cited from earlier work
[4] = daily approximately 400 mg/kg, long-term; cited from earlier work
[5] = tested on: many different cell lines; conditions: 10^-5 M to 10^-4 M; cited from earlier work
HeLa cell strain, TCRC-2 = conditions: cited from earlier work
[6] = tested on: cultured rat kidney epithelial cell line; conditions: cited from earlier work
[7] = target: purified bovine adrenal G6PDH (Bos taurus, UniProt F1MMK2); assay: G6PDH inhibition test; format: biochemical; conditions: individual determinations
Description: The compound listed below are screened as inhibitors of purified bovine adrenal G6PDH activity as one predictor of cancer preventive action. The assay for testing the inhibition of purified bovine adrenal G6PDH is according to the procedure by Oertell, G. W. and Rebelein, I. in Biochem. Biophys. Acta, 184, 459-460 (1969).

[8] = Estrogenic and anti-estrogenic activity, uterine weight; format: in vivo, rat (female CD); conditions: 60 mg/kg s.c. for 3 days, DHEA significantly greater than control
Experimental: Estrogenic and Anti-Estrogenic Activity
Female CD rats, 26-27 days old, were injected subcutaneously for 3 days with one of the compounds of the present invention at 60 mg/kg in propylene glycol. Controls received propylene glycol alone. On the 4th day, the rats were killed and the uteri were dissected out and weighed.

[9] = mouse, in vivo; cited from earlier work
[10] = tested on: mouse epidermis (TPA stimulated 3H-thymidine incorporation); assay: TPA stimulation of 3H-thymidine incorporation in mouse epidermis, oral steroid; format: in vivo, mouse (male ICR)
Experimental: (§1) Tumor promoters, such as TPA, stimulate hyperplasia and DNA synthesis when applied to the skin, and it is believed that this stimulation is an important step in the enhancement of tumorigenesis.
Male ICR mice were orally intubated with steroid suspended in sesame oil (0.5 ml/mouse) at the indicated dose. Mice not receiving steroid were given sesame oil alone. One hour later mice received topical application of TPA and 20 hours later the rate of ^3 H-thymidine incorporation into the epidermis was determined as described in Pashko, L. L., Schwartz, A. G., Abou-Gharbia, M., and Swern, D. (1981), Inhibition of DNA synthesis in mouse epidermis and breast epithelium by dehydroepiandrosterone and related steroids, Carcinogenesis, 2,-717-721.
Experimental conditions are the same as in Table 3.

[11] = tested on: human lymphocytes (Epstein-Barr virus-induced transformation); conditions: cited from earlier work
[12] = Liver weight after three weeks of diet treatment; format: in vivo, mouse (female Balb/c); conditions: 0.25% of diet
Experimental: (§2) Female Balb/c mice were housed in polycarbonate cages (6/mice/cage) in animal quarters maintained at 24°±1° C. with 12 hours of light and 12 hours of dark each day. The mice were placed on a diet containing either DHEA, 8354, A, B clofibrate or with no addition. Three weeks later the mice were killed, the livers were perfused with cold saline, weighed, and 5% liver homogenates were prepared for the determination of catalase activity by the spectrophotometric method of Luck (H. Luck, in Method in Enzyme Analysis, H. U. Bergmeyer, Ed. (Verlag Chemie, Weinheim/Bergstrasse, Germany, 1965)). Total protein was measured by the method of Lowry, et al. (O. H. Lowry, N. J. Rosebrough, A. L. Farr, R. J. Randall, J. Biol. Chem., 193, 265 (1951)).

[13] = topical, complete carcinogenesis model; cited from earlier work
liver catalase = assay: Liver catalase activity after three weeks of diet treatment; format: in vivo, mouse (female Balb/c)
Experimental: as §2

[14] = mouse, in vivo; cited from earlier work; remark: listed apart in the source
[15] = tested on: mouse epidermal DNA (TPA stimulated 3H-thymidine incorporation); assay: TPA stimulation of 3H-thymidine incorporation in epidermis, topical steroid; format: in vivo, mouse (A/J); conditions: for SPECIFIC ACTIVITY, TPA stimulated 3H-thymidine incorporation: no steroid 66, TPA alone 174
Experimental: as §1
Incorporation of ^3 H-thymidine into A/J mouse epidermal DNA was determined as described in Pashko, L. L., Schwartz, A. G., Abou-Gharbia, M. and Swern, D. (1981), Inhibition of DNA synthesis in mouse epidermis and breast epithelium by dehydroepiandrosterone and related steroids, Carcinogenesis, 2, 717-721. Values are mean±SD for 3 separately treated mice in each group 20 hours after TPA application. DHEA or testosterone was added topically in 0.2 ml acetone one hour before TPA addition.

[16] = DMBA-initiated and TPA-promoted; cited from earlier work
[17] = C3H mice, cited from earlier work
[18] = Anti-obesity action, body weight, male A/J mice; format: in vivo, mouse (male A/J); conditions: 0.45% in diet
Experimental: Male A/J (5 weeks old) mice were obtained from the
Jackson Laboratory and were housed in polycarbonate cages (6
mice/cage) in animal quarters maintained at 24 ± 1° C. with 12
hours of light and 12 hours of darkness each day. One week
after arrival, the mice were placed on a diet containing
either DHEA, 8353, or without steroid. Animals were weighed

Chain of purified bovine adrenal G6PDH (F1MMK2 31-70): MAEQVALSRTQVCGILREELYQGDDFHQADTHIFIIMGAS
Chain of purified bovine adrenal G6PDH (F1MMK2 101-575): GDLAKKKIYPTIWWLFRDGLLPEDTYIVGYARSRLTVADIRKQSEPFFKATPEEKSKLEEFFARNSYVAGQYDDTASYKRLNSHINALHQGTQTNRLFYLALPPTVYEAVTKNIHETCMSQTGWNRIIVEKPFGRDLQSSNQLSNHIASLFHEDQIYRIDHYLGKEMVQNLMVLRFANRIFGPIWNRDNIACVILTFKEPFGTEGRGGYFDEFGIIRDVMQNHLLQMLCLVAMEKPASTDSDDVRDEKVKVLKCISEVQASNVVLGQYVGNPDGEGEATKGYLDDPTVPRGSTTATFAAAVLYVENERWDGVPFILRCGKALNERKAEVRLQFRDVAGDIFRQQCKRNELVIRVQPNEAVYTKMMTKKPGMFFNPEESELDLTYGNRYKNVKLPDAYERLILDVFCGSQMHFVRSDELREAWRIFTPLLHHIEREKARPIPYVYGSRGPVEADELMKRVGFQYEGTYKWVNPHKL

C[C@]12CC[C@H](O)CC1=CC[C@@H]1[C@@H]2CC[C@]2(C)C(=O)CC[C@@H]12 [DHEA, Dehydroepiandrosterone]
rate of development of the autoimmune anemia [1]: significantly inhibits the rate of development of the autoimmune anemia
anti-weight effect ([2]; approximately 400 mg/kg daily, repeatedly over a few weeks): produces an anti-weight effect
effect on weight: cause of the anti-weight effect ([2]; four weeks, 400 mg/kg): due to both a reduction in food intake and to a decrease in the efficiency of food utilization
survival [3]: prolonged the survival
development of breast, lung, and colon tumors [4]: inhibit the development of breast, lung, and colon tumors
growth of cell lines in culture [5]: slows the growth of many different cell lines in culture
growth inhibition of HeLa TCRC-2 (HeLa cell strain, TCRC-2): particularly sensitive to DHEA-induced growth inhibition
reversal of growth inhibition by deoxynucleosides (HeLa cell strain, TCRC-2; mixture of deoxynucleosides of adenine, guanine, cytosine, thymine in medium): can be almost completely overcome
capacity of TPA to stimulate 3H-thymidine incorporation [6]: antagonizes
Percent Inhibition of G6PDH ([7]; 10^-5 M): 57%
inhibition at 10 µM ([7]; 10^-5 M, read-out: Percent Inhibition of G6PDH): 53%
inhibition at 1 µM ([7]; 10^-6 M, read-out: Percent Inhibition of G6PDH): 17%
Mean Uterine Weight ± S.D. ([8]; control 2.02 ± 0.28, p < .001): 4.17 ± 0.48 mg/100 gm body weight
Mean Uterine Weigh ± S.D. ([8]; Table 2a, control 1.95 ± 0.22, p < 0.001): 3.93 ± 0.71
anti-hypercholesterolemic effect [9]: anti-hypercholesterolemic effect
SPECIFIC ACTIVITY, TPA stimulated 3H-thymidine incorporation ([10]; Table 9, oral 400 mg/kg, no steroid 55.1, TPA alone 118): 50.9 ± 3.2 cpm/ug DNA
effect on TPA stimulation in 3H-thymidine incorporation ([10]; oral, mice, doses well below 400 mg/kg, comparable to food restriction): inactive
effect on TPA stimulation of 3H-thymidine incorporation ([10]; single administration, 400 mg/kg, mice, compared with food restriction or topical 400 ug DHEA): does not inhibit the TPA stimulation in epidermal ^3 H-thymidine incorporation to a degree comparable
inhibition of Epstein-Barr virus-induced transformation [11]: inhibitors of Epstein-Barr virus-induced transformation of human lymphocytes
LIVER WEIGHT ([12]; control 0.057 ± 0.006, DHEA p < 0.05, clofibrate p < 0.002 vs control): 0.074 ± 0.005 gm/gm body weight
liver weight, in words ([12]; mice): increased liver weight; also recorded: hepatomegaly
DMBA produced papillomas and carcinomas [13]: inhibits DMBA produced papillomas and carcinomas
CATALASE ACTIVITY (liver catalase; 0.25% of diet, control 31.1 ± 6.7, DHEA p < 0.05, clofibrate p < 0.001 vs control): 97.8 ± 24 Units per mg protein
increase in liver catalase specific activity (liver catalase; 0.25%, vs control): threefold
catalase activity, in words (liver catalase; mice, 0.25% of diet): stimulated catalase activity
hypoglycemic effect [14]: marked hypoglycemic effect
SPECIFIC ACTIVITY, TPA stimulated 3H-thymidine incorporation ([15]; topical 100 ug): 52 ± 5.8 cpm/ug DNA
SPECIFIC ACTIVITY, TPA stimulated 3H-thymidine incorporation ([15]; topical 400 ug): 22 ± 6.5 cpm/ug DNA
effect on TPA stimulation of 3H-thymidine incorporation ([15]; topical, in words (Table 5)): abolishes this stimulation
skin papilloma formation [16]: inhibit
weight gain on long-term treatment [17]: reducing weight gain without suppressing appetite
spontaneous breast cancer development ([17]; long-term treatment): markedly inhibits spontaneous breast cancer development
mean weekly weight ± S.D. ([18]; week 0, control 23 ± 1.5): 23.0 ± 1.5 grams
mean weekly weight ± S.D. ([18]; week 1, control 25.0 ± 1.6): 22.8 ± 1.5 grams
mean weekly weight ± S.D. ([18]; week 2, control 27.0 ± 1.6): 19.0 ± 1.5 grams
mean weekly weight ± S.D. ([18]; week 3, control 27.3 ± 1.6): 21.5 ± 1.1 grams
mean weekly weight ± S.D. ([18]; week 4, control 27.5 ± 1.9): 21.4 ± 1.2 grams
